Drawing on US5491155A, “Substituted thiadiazoles, compositions containing them and their use as antimicrobial and marine antifouling agents” (The Dow Chemical Company, priority 1994, dated 1996), this text covers MIC for two compounds.

Values after ≈ are worked out from the molar mass of the structure shown. Where two headings read alike, the source gives them in different places.

For one experiment, the system named is Enterobacter aerogenes. Kind of experiment: MIC in nutrient agar, Enterobacter aerogenes. It counts as cell-based, Enterobacter aerogenes (ATCC 13048). The note with it: Klebsiella aerogenes, Ea, 30° C., 48 hours, read-out: Minimum Inhibitory Concentration (MIC). The procedure: (§1) The minimum inhibitory concentration (MIC) for the compounds listed in Table I is determined for bacteria, using nutrient agar, and 7 yeast and fungi, using malt yeast agar. A one percent solution of the test compound is prepared in a mixture of acetone and water.
Nutrient agar is prepared at pH 6.8, representing a neutral medium, and at pH 8.2, representing an alkaline medium. The nutrient agars are prepared by adding 23 g of nutrient agar to one-liter of deionized water. In addition, the alkaline medium is prepared by adjusting a 0.04M solution of N-(tris-(hydroxymethyl)methyl)glycine buffered deionized water with concentrated sodium hydroxide to a pH of 8.5.
(§2) The test tubes containing the agar are cooled in a water bath until the temperature of the agar is 48° C. Then, an appropriate amount of the one percent solution of the test compound is added (except in the controls where no compound is added) to the respective test tubes so that the final concentrations are 500, 250, 100, 50, 25, 10, 2.5, 1.0 and zero parts per million of the test compound in the agar, thus having a known concentration of test compound dispersed therein. The contents of the test tubes are then transferred to respective petri plates. After drying for 24 hours, the petri plates containing nutrient agar are inoculated with bacteria and those containing malt yeast agar are inoculated with yeast and fungi.
The inoculation with bacteria is accomplished by using the following procedure. Twenty-four hour-cultures of each of the bacteria are prepared by incubating the respective bacteria in tubes containing nutrient broth for 24 hours at 30° C. in a shaker. Dilutions of each of the 24 hour-cultures are made so that nine separate suspensions (one for each of the nine test bacteria) are made, each containing 10^8 colony forming units (CFU) per mL of suspension of a particular bacteria. Aliquots of 0.3 mL of each of the bacterial suspensions are used to fill the individual wells of Steer's Replicator. For each microbial suspension, 0.3 mL was used to fill three wells (i.e., three wells of 0.3 mL each) so that for the nine different bacteria, 27 wells are filled. The Steer's Replicator is then used to inoculate both the neutral and alkaline pH nutrient agar petri plates.
The inoculated petri plates are incubated at 30° C. for 48 hours and then read to determine if the test compound which is incorporated into the agar prevented growth of the respective bacteria.
(§3) Table II lists the bacteria, yeast and fungi used in the MIC test described above along with their respective American Type Culture Collection (ATCC) identification numbers.
(§4) In Tables III and IV, the MIC values of the compounds described in Table I as compared to the MIC of a standard commercial preservative (with 1-(3-chloroalkyl)-3,5,7-triaza-1-azoniaadamantane chloride as the active agent and referred to in Tables III and IV as "STANDARD I") are set forth for the bacteria organisms and yeast/fungi organisms which are listed in Table II.

The next experiment concerns Fusarium oxysporum. Kind of experiment: MIC in malt yeast agar, Fusarium oxysporum. The note with it: Fo; malt yeast agar; 30° C.; 72 hours for fungi; read-out: Minimum Inhibitory Concentration (MIC). The class given is cell-based, Fusarium oxysporum (ATCC 48112). As to the method:
as §1
Malt yeast agar is prepared by adding 3 g yeast extract and 45 g malt agar per liter of deionized water. The specific agar is dispensed in 30 mL aliquots into 25×200 mm test tubes, capped and autoclaved for 15 minutes at 115° C.
as §2
The inoculation with the yeast and fungi is accomplished as follows. Cultures of yeast and fungi are incubated for seven days on malt yeast agar at 30° C. These cultures are used to prepare suspensions by the following procedure. A suspension of each organism is prepared by adding 10 mL of sterile saline and 10 microliters of octylphenoxy polyethoxy ethanol to the agar slant of yeast or fungi. The sterile saline/octylphenoxy polyethoxy ethanol solution is then agitated with a sterile swab to suspend the microorganism grown on the slant. Each resulting suspension is diluted into sterile saline (1 part suspension: 9 parts sterile saline). Aliquots of these dilutions are placed in individual wells of Steer's Replicator and petri plates inoculated as previously described. The petri plates are incubated at 30° C. and read after 48 hours for yeast and 72 hours for fungi.
as §3, §4

On to `N#CSc1nsnc1SC#N` [Example 2, Bis(thiocyanato)-1,2,5-thiadiazole], for which the MIC amounted to 25 µg/mL (≈ 125 µM) in the experiment on Enterobacter aerogenes (pH 6.8), 100 µg/mL (≈ 499 µM) in the experiment on Enterobacter aerogenes (pH 8.2) and 2.5 µg/mL (≈ 12.5 µM) in the experiment on Fusarium oxysporum.

Consider `N#CSCSc1nsnc1SCSC#N` [Example 4, Bis(thiomethylthiocyanato)-1,2,5-thiadiazole], for which the MIC is 25 µg/mL (≈ 85.5 µM) with Enterobacter aerogenes (pH 6.8), < 10 µg/mL in the experiment on Enterobacter aerogenes (pH 8.2) and < 2.5 µg/mL with Fusarium oxysporum.
